From BigSolDB 2.1

CNC(=O)c1cc(Oc2ccc(NC(=O)Nc3ccc(Cl)c(C(F)(F)F)c3)c(F)c2)ccn1
solubility (mole fraction)
Conditions	278.15 K	283.15 K	288.15 K	293.15 K	298.15 K	303.15 K	308.15 K	313.15 K
in acetone	0.0014	0.00173	0.00199	0.00247	0.00323	0.00375	0.00443	0.00526
in acetonitrile	0.00014	0.000162	0.000168	0.000203	0.000248	0.000299	0.000381	0.000492
in ethanol	0.000641	0.000677	0.000739	0.000865	0.000911	0.0011	0.00126	0.00145
in isopropanol	0.000657	0.000679	0.000698	0.000769	0.000918	0.00109	0.00137	0.00161
in methanol	0.000315	0.000351	0.00041	0.000422	0.000475	0.000581	0.000689	0.000797
in n-propanol	0.000701	0.000769	0.000814	0.000908	0.00099	0.0012	0.00147	0.00172
